Measurements: BigSolDB 2.1

CC(=O)[C@@]12O[C@@H]1C[C@H]1[C@@H]3CCC4=CC(=O)CC[C@]4(C)[C@H]3CC[C@@]12C
Conditions	solubility (mole fraction)
in DMSO, 312.45 K	0.00539
in DMSO, 315.5 K	0.00572
in DMSO, 318.35 K	0.00657
in DMSO, 322.35 K	0.00756
in DMSO, 326.5 K	0.0087
in DMSO, 328.65 K	0.00937
in DMSO, 331.2 K	0.0101
in DMSO, 334.9 K	0.0115
in DMSO, 339.15 K	0.0135
in DMSO, 343.95 K	0.0161
in DMSO, 348.35 K	0.0188
in DMSO, 353.45 K	0.0223
in isopropanol, 296.65 K	0.00307
in isopropanol, 299.55 K	0.00341
in isopropanol, 303.25 K	0.00405
in isopropanol, 306.35 K	0.00486
in isopropanol, 311.75 K	0.00598
in isopropanol, 314.8 K	0.00689
in isopropanol, 317.85 K	0.00752
in isopropanol, 322.95 K	0.00992
in isopropanol, 325.6 K	0.011
in isopropanol, 328.75 K	0.0125
in isopropanol, 333.25 K	0.0152
in isopropanol, 337.45 K	0.0177
in n-butanol, 300.85 K	0.00412
in n-butanol, 303.9 K	0.00473
in n-butanol, 306.75 K	0.00543
in n-butanol, 309.85 K	0.00624
in n-butanol, 314.25 K	0.00765
in n-butanol, 319.18 K	0.00919
in n-butanol, 323.55 K	0.0109
in n-butanol, 328.05 K	0.0134
in n-butanol, 332.75 K	0.0162
in n-butanol, 336.66 K	0.019
in n-butanol, 340.3 K	0.0219
in n-butanol, 343.5 K	0.0244
in n-propanol, 299.15 K	0.00349
in n-propanol, 304.05 K	0.00459
in n-propanol, 307.5 K	0.00524
in n-propanol, 311.55 K	0.00623
in n-propanol, 313.7 K	0.00684
in n-propanol, 316.25 K	0.00769
in n-propanol, 320.65 K	0.00908
in n-propanol, 324.25 K	0.0105
in n-propanol, 328.25 K	0.0122
in n-propanol, 332.05 K	0.0143
in n-propanol, 335.25 K	0.0165
in n-propanol, 340.6 K	0.0203

CC(=O)[C@@]12O[C@@H]1C[C@H]1[C@@H]3CCC4=CC(=O)CC[C@]4(C)[C@H]3[C@H](O)C[C@@]12C
Conditions	solubility (mole fraction)
in 1,4-dioxane, 298 K	0.00293
in 1,4-dioxane, 302.75 K	0.00353
in 1,4-dioxane, 306.39 K	0.00408
in 1,4-dioxane, 310.55 K	0.00447
in 1,4-dioxane, 314.75 K	0.00518
in 1,4-dioxane, 317.25 K	0.0055
in 1,4-dioxane, 320.35 K	0.00605
in 1,4-dioxane, 325.05 K	0.00687
in 1,4-dioxane, 328.55 K	0.00765
in 1,4-dioxane, 332.05 K	0.00845
in 1,4-dioxane, 335.35 K	0.00932
in 1,4-dioxane, 340.15 K	0.0105
in DMSO, 297.75 K	0.00423
in DMSO, 301.3 K	0.00515
in DMSO, 311.06 K	0.00772
in DMSO, 315.15 K	0.00843
in DMSO, 319.05 K	0.00966
in DMSO, 324.25 K	0.0112
in DMSO, 327.15 K	0.0126
in DMSO, 329.55 K	0.0141
in DMSO, 333.67 K	0.016
in DMSO, 337.43 K	0.0178
in DMSO, 340.25 K	0.0196
in DMSO, 344.65 K	0.0228
in isopropanol, 297.95 K	0.000542
in isopropanol, 300.25 K	0.000643
in isopropanol, 303.45 K	0.000717
in isopropanol, 308.05 K	0.000952
in isopropanol, 312.65 K	0.00126
in isopropanol, 316.35 K	0.00147
in isopropanol, 320.75 K	0.0019
in isopropanol, 323.85 K	0.00212
in isopropanol, 327.45 K	0.00262
in isopropanol, 331.95 K	0.00311
in isopropanol, 335.65 K	0.00368
in isopropanol, 340.25 K	0.00456
in n-butanol, 298.75 K	0.000597
in n-butanol, 304.45 K	0.000775
in n-butanol, 307.35 K	0.000935
in n-butanol, 310.75 K	0.00113
in n-butanol, 315.67 K	0.00143
in n-butanol, 320.75 K	0.00177
in n-butanol, 324.35 K	0.00205
in n-butanol, 328.55 K	0.00237
in n-butanol, 331.65 K	0.00268
in n-butanol, 334.15 K	0.00304
in n-butanol, 336.45 K	0.00334
in n-butanol, 340.15 K	0.00384
in n-propanol, 300.5 K	0.000796
in n-propanol, 303.25 K	0.000933
in n-propanol, 306.75 K	0.00109
in n-propanol, 309.9 K	0.00125
in n-propanol, 312.7 K	0.00142
in n-propanol, 317.15 K	0.00172
in n-propanol, 321.67 K	0.00208
in n-propanol, 324.85 K	0.00235
in n-propanol, 327.95 K	0.0027
in n-propanol, 332.65 K	0.00322
in n-propanol, 336.85 K	0.00382
in n-propanol, 341.65 K	0.00463
